Assay results: ChEMBL document CHEMBL4732267, “Novel Substituted Exomethylene-oxindoles as HPK1 Inhibitors” (ACS Med Chem Lett, 2021)

Molecular target: Mitogen-activated protein kinase kinase kinase kinase 1 (Homo sapiens, UniProt Q92918)
Test: Inhibition of recombinant human HPK1 expressed in baculovirus infected insect cells using SRKS1 peptide as substrate incubated for 15 mins followed by substrate addition and measured after 3 hrs by TR-FRET assay

Chain of Mitogen-activated protein kinase kinase kinase kinase 1 (Q92918 whole entry): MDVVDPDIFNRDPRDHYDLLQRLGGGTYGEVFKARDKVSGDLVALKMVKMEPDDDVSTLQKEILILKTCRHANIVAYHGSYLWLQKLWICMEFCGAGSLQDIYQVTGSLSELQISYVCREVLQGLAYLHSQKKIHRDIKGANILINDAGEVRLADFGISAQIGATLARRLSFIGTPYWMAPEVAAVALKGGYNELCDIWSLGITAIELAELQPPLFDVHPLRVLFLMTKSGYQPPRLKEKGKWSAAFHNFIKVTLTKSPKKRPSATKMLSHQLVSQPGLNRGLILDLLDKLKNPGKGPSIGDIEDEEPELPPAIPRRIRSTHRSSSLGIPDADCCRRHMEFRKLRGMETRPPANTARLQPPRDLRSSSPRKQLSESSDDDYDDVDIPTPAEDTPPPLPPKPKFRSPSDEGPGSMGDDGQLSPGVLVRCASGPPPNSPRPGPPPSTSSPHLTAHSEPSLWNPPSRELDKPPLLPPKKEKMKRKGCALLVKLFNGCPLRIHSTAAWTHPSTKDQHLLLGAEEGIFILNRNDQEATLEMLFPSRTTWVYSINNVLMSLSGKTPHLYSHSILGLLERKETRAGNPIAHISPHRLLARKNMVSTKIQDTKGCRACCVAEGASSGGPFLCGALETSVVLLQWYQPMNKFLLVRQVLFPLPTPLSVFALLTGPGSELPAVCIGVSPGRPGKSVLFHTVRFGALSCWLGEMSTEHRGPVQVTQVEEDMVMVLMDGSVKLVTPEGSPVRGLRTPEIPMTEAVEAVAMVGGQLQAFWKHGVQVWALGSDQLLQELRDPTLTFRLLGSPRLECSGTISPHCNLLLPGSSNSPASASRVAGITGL

IC50: 0.05 nM
SMILES: Cc1c(-c2cc(F)c3c(c2)/C(=C/c2ccc(C4CC4)[nH]2)C(=O)N3)cnc2c1NCCO2
